The results in this text go back to PubChem BioAssay AID2132 (NMMLSC, 2009).

A short description of this assay: yeast 26S proteasome protease site inhibitors – biochemical, fluorogenic peptides, secondary, counter-screen for 26S proteasome disassembly project (AID 2132). The following applies: fluorogenic peptide cleavage rate, peptide cleavage rate with compound, at 100 µM, stronger effect = lower value.

SMILES strings stand for the structures. Peptide text beside a SMILES is read from it. * marks the point of attachment. Cbz = O=C(OCc1ccccc1)*

On to `CC(=O)N1C(=O)C(=C2C=C(C)OC(C)=C2)c2ccccc21`, for which the cleavage rate (fluorescence units/min) (with Ac-RLR-amc) is 0.32, the cleavage rate (fluorescence units/min) (with Ac-nLPnLD-amc) was 0.2 and the cleavage rate (fluorescence units/min) (with Suc-LLVY-amc) is 0.52.
As to `CC(C)C[C@@H](C=O)NC(=O)[C@H](CC(C)C)NC(=O)[C@H](CC(C)C)NC(=O)OCc1ccccc1` (Cbz-Leu-Leu-Leu-aldehyde), the cleavage rate (fluorescence units/min) is 0.41 (with Ac-RLR-amc), 0.11 (with Ac-nLPnLD-amc) and 0 (with Suc-LLVY-amc).
